The structures appear in SMILES notation. Activity calls are given as the source filed them. The calls are words filed in the database; no cut-off is given here.

Data set [1] deals with Nonstructural protein 3 (Zika virus) (UniProt A0A024AXB9). Nature of the data set: Inhibition of N-terminal hexa-histidine tagged Zika virus NS2B/NS3 protease expressed in Escherichia coli BL21-Gold (DE3) at 20 uM using fluorogenic AMC-substituted peptide boc-GRR-7-amino-4-methylcoumarin measured every 30 secs for 10 mins by fluorometric assay relative to control.
Chain of Nonstructural protein 3 (Zika virus) (A0A024AXB9 as listed by the source): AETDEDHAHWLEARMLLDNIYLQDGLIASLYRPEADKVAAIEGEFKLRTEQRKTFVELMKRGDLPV
Data set [2] has as its system dengue virus type 2. Kind of data set: Inhibition of N-terminal hexa-histidine tagged Dengue virus 2 NS2B/NS3 protease I30A/L31A mutant expressed in Escherichia coli BL21-Gold (DE3) at 20 uM using fluorogenic AMC-substituted peptide boc-GRR-7-amino-4-methylcoumarin measured every 30 secs for 10 mins by fluorometric assay relative to control.
Data set [3] has as its target T1, Nonstructural protein 3 (Zika virus, UniProt A0A024AXB9). Nature of the data set: Inhibition of N-terminal hexa-histidine tagged Zika virus NS2B/NS3 protease expressed in Escherichia coli BL21-Gold (DE3) using fluorogenic AMC-substituted peptide boc-GRR-7-amino-4-methylcoumarin measured every 30 secs for 10 mins by fluorometric assay.
Data set [4] can be described thus: Inhibition of N-terminal hexa-histidine tagged Dengue virus 2 NS2B/NS3 protease I30A/L31A mutant expressed in Escherichia coli BL21-Gold (DE3) using fluorogenic AMC-substituted peptide boc-GRR-7-amino-4-methylcoumarin measured every 30 secs for 10 mins by fluorometric assay. Further details: species or system dengue virus type 2.
Data set [5] deals with Zika virus. Kind of data set: Antiviral activity against Zika virus infected in African green monkey Vero cells assessed as suppression of viral replication at 3 uM pre-incubated with cells for 1 hr before viral infection and measured after 4 days by RT-qPCR analysis. Type of data set: functional, organism-based. In general terms: In qPCR the cycle at which signal appears reflects the starting amount.

In data set [6] the test system is dengue virus type 2. Nature of the data set: Antiviral activity against Dengue virus 2 infected in African green monkey Vero cells assessed as suppression of viral replication at 3 uM pre-incubated with cells for 1 hr before viral infection and measured after 4 days by RT-qPCR analysis. Type of data set: functional, organism-based.
The subject of data set [7] is A549. Nature of the data set: Cytotoxicity against human A549 cells assessed as reduction in cell viability up to 5 uM by Presto blue cell viability reagent based assay.
In data set [8] the test system is Zika virus. Nature of the data set: Antiviral activity against Zika virus French Polynesia infected in human A549 cells assessed as reduction in viral RNA at 5 uM measured after 24 to 72 hrs post infection by RT-qPCR analysis. Type of data set: functional, organism-based.
The test system of data set [9] is Zika virus. Nature of the data set: Antiviral activity against Zika virus Uganda infected in human A549 cells assessed as reduction in viral RNA at 5 uM measured after 24 to 72 hrs post infection by RT-qPCR analysis. Type of data set: functional, organism-based.
Data set [10] is described as follows: Drug level in rat liver microsomes treated with (S)-N-(5,6-Dimethoxybenzo[d]thiazol-2-yl)-1-tosylpyrrolidine-2-carboxamide assessed as compound formation in presence of NADPH generating system by LC-MS/MS analysis. Type of data set: ADME, Microsome. For orientation: Microsomes from liver hold many membrane-bound enzymes, among them those of drug oxidation.
Data set [11] in a line: Drug level in rat liver microsomes treated with (R)-N-(5,6-Dimethoxybenzo[d]thiazol-2-yl)-1-tosylpyrrolidine-2-carboxamide assessed as compound formation in presence of NADPH generating system by LC-MS/MS analysis. Type of data set: ADME, Microsome.
Data set [12] deals with T1, Nonstructural protein 3. Nature of the data set: Binding affinity to N-terminal hexa-histidine tagged Zika virus NS2B/NS3 protease expressed in Escherichia coli BL21-Gold (DE3) by microscale thermophoresis method. In general terms: MST reads how a fluorescent partner responds to local heating, with and without ligand.
The test system of data set [13] is Zika virus. Nature of the data set: Antiviral activity against Zika virus infected in African green monkey Vero cells assessed as suppression of viral replication at 10 uM pre-incubated with cells for 1 hr before viral infection and measured after 4 days by RT-qPCR analysis. Type of data set: functional, organism-based.
Data set [14] concerns dengue virus type 2. Kind of data set: Antiviral activity against Dengue virus 2 infected in African green monkey Vero cells assessed as suppression of viral replication at 10 uM pre-incubated with cells for 1 hr before viral infection and measured after 4 days by RT-qPCR analysis. Type of data set: functional, organism-based.
Data set [15] can be described thus: Drug metabolism in rat liver microsomes assessed as formation of (R)-N-(5,6-Dihydroxybenzo[d]thiazol-2-yl)-1-tosylpyrrolidine-2-carboxamide in presence of NADPH generating system by LC-MS/MS analysis. Type of data set: ADME, Microsome.
Data set [16] can be described thus: Drug metabolism in rat liver microsomes assessed as formation of (S)-N-(5,6-Dimethoxybenzo[d]thiazol-2-yl)-1-((4-(hydroxymethyl) phenyl) sulfonyl)pyrrolidine-2-carboxamide in presence of NADPH generating system by LC-MS/MS analysis. Type of data set: ADME, Microsome.
Data set [17] is described as follows: Drug metabolism in rat liver microsomes assessed as formation of (R)-N-(5,6-Dimethoxybenzo[d]thiazol-2-yl)-1-((4-(hydroxymethyl) phenyl) sulfonyl)pyrrolidine-2-carboxamide in presence of NADPH generating system by LC-MS/MS analysis. Type of data set: ADME, Microsome.
Data set [18] in a line: Drug metabolism in rat liver microsomes assessed as formation of (S)-1-Benzoyl-N-(5,6-dihydroxybenzo[d]thiazol-2-yl)pyrrolidine-2-carboxamide in presence of NADPH generating system by LC-MS/MS analysis. Type of data set: ADME, Microsome.

T1 sequence (A0A024AXB9 whole entry): as the sequence (A0A024AXB9 as listed by the source) above

Usually inhibition stands for the relative decrease from the control value, in per cent. For `COc1ccc(S(=O)(=O)N2CCC[C@@H]2C(=O)Nc2nc3cc(OC)c(OC)cc3s2)cc1`, the inhibition entry in data set [1] and in [2] was “inactive” each time.

Broadly, the IC50 is the concentration needed to halve the response being measured. Turning to `Cc1ccc(S(=O)(=O)N2CCCC[C@@H]2C(=O)Nc2nc3cc(O)c(O)cc3s2)cc1`, the IC50 in data set [3] amounted to 0.58 µM; in data set [4], 29 µM.

`CC(=O)Nc1ccc2cc(S(=O)(=O)N3CCC[C@@H]3C(=O)Nc3nc4cc(O)c(O)cc4s3)ccc2c1` displayed an IC50 in data set [3] of 1.35 µM. This molecule also gave an inhibition in data set [2] of 18%.

Molecule `O=C(Nc1nc2cc(O)c(O)cc2s1)[C@H]1CCCN1S(=O)(=O)c1ccc(F)cc1` came in with an IC50 in data set [3] of 1.03 µM. In data set [2], this molecule had an inhibition of 17%.

In data set [3], `Cc1ccc(S(=O)(=O)N2CCC(C(=O)Nc3nc4cc(O)c(O)cc4s3)CC2)cc1` returned an IC50 of 5.95 µM. In [2], this molecule gave an inhibition of 41%.

Regarding `Cc1ccc(S(=O)(=O)NCC(=O)Nc2nc3cc(O)c(O)cc3s2)cc1`, the IC50 in [3] is 0.81 µM; in data set [4] it was 23 µM.

The molecule `O=C(Nc1nc2cc(O)c(O)cc2s1)[C@@H]1CCCN1C(=O)c1ccccc1` returned an IC50 in [3] of 1.55 µM. The inhibition in data set [2] was 28%.

The molecule `O=C(Nc1nc2cc(O)c(O)cc2s1)[C@@H]1CCCN1S(=O)(=O)c1ccc(Cl)cc1` returned an IC50 in data set [3] of 0.93 µM. The inhibition in data set [2] came out at 39%.

Consider `COc1cc2nc(NC(=O)C3CCCN3S(=O)(=O)c3ccc(Cl)cc3)sc2cc1OC` (stereo not given), for which the inhibition result in data set [1] and in data set [2] was “inactive” each time.

Consider `O=C(Nc1nc2ccc([N+](=O)[O-])cc2s1)[C@H]1CCCN1C(=O)c1ccccc1`, for which the IC50 in [3] stood at 21.9 µM; in [4] it was 33.9 µM.

`Cc1ccc(S(=O)(=O)N2CCC[C@@H]2C(=O)Nc2nc3ccc([N+](=O)[O-])cc3s2)cc1`: the inhibition worked out at 31% in [1] and 18% in data set [2].

Regarding `COc1cc2nc(NC(=O)C3CCCN3S(=O)(=O)c3ccc([N+](=O)[O-])cc3)sc2cc1OC` (stereo not given), the inhibition result in [1] and in data set [2] was “inactive” throughout.

On to `O=C(Nc1nc2ccc([N+](=O)[O-])cc2s1)[C@@H]1CCCN1C(=O)c1ccccc1`, for which the inhibition in data set [1] was determined as 44%; in data set [2], 41%.

Take `COc1ccc(S(=O)(=O)N2CCC[C@H]2C(=O)Nc2nc3cc(O)c(O)cc3s2)cc1`: the midpoint of inhibition in data set [3], the IC50, lay at 1.32 µM. In addition, the inhibition in [2] came to 36%.

On to `O=C(Nc1nc2cc(O)c(O)cc2s1)[C@H]1CCCN1S(=O)(=O)c1ccc([N+](=O)[O-])cc1`, for which the result in data set [5] was inactive. Moreover, the IC50 in data set [3] was 0.32 µM; in data set [4], 10 µM. Besides, the outcome in data set [6] was Active.

Consider `Cc1ccc(S(=O)(=O)N2CCCC(C(=O)Nc3nc4cc(O)c(O)cc4s3)C2)cc1` (racemic), for which inhibition in data set [3] was half-maximal at 4.55 µM (IC50). In [2], this molecule gave an inhibition of 34%.

`O=C(Nc1nc2cc(O)c(O)cc2s1)[C@H]1CCCN1S(=O)(=O)c1ccc(Cl)cc1` yielded an IC50 in data set [3] of 1.4 µM. Further, the inhibition in [2] worked out at 34%.

One may read the Kd as the concentration at which binding is half-saturated. `Cc1ccc(S(=O)(=O)N2CCC[C@H]2C(=O)Nc2nc3cc(O)c(O)cc3s2)cc1`: the Activity entry in data set [7] is “Non-Toxic”. The result in [8], in [9] and in data set [13] was inactive. Moreover, the IC50 in [3] was 2.32 µM; in [4], 25.2 µM. Also, the Drug uptake entry in data set [10] and in data set [11] was “Active” throughout. In data set [12], this molecule displayed a Kd of 0.24 µM.

Consider `O=C(Nc1nc2cc(O)c(O)cc2s1)[C@@H]1CCCN1S(=O)(=O)c1ccc(-c2ccccc2)cc1`, for which the half-maximal inhibitory concentration (IC50) was found to be 3.17 µM in data set [3] and 13.5 µM in [4].

`COc1cc2nc(NC(=O)C3CCCN3S(=O)(=O)c3ccc(C)cc3)sc2cc1OC` (stereo not given): the inhibition result in data set [1] and in [2] was “inactive” in each case.

Consider `O=C(Nc1nc2cc(O)c(O)cc2s1)[C@H]1CCCN1S(=O)(=O)c1ccccc1`, for which the IC50 in [3] was 1.86 µM. Moreover, in data set [2], the inhibition is 21%.

On to `O=C(Nc1nc2cc(O)c(O)cc2s1)[C@H]1CCCN1C(=O)c1ccccc1`, for which half-maximal inhibition in [3] (IC50) was put at 0.94 µM. For the same molecule, the inhibition in [2] was found to be 33%.

For the molecule `O=C(Nc1nc2cc(O)c(O)cc2s1)[C@@H]1CCCN1S(=O)(=O)c1ccc([N+](=O)[O-])cc1`, in data set [14], the outcome was Active. Moreover, the IC50 came out at 0.93 µM in [3] and 8.58 µM in data set [4]. The result in [13] was inactive.

On to `O=C(Nc1nc2cc(O)c(O)cc2s1)C1CCCCC1`, for which the inhibition in [1] worked out at 36%; in data set [2], 20%.

On to `COc1ccc(S(=O)(=O)N2CCC[C@@H]2C(=O)Nc2nc3cc(O)c(O)cc3s2)cc1`, for which the half-maximal inhibitory concentration (IC50) in data set [3] came to 0.86 µM. This molecule gave an inhibition in [2] of 28%.

With `COc1cc2nc(NC(=O)[C@@H]3CCCN3S(=O)(=O)c3ccc(CO)cc3)sc2cc1OC`, the Drug uptake result in data set [10] and in data set [11] was “Active” in each case.

`COc1cc2nc(NC(=O)[C@H]3CCCN3S(=O)(=O)c3ccc(CO)cc3)sc2cc1OC`: the Drug uptake entry in data set [10] and in [11] was “Active” throughout.

Consider `O=C(Nc1nc2cc(O)c(O)cc2s1)[C@H]1CCCN1S(=O)(=O)c1ccc(-c2ccccc2)cc1`, for which the IC50 in [3] was 2.47 µM; in data set [4], 10.9 µM.

As for `COc1cc2nc(NC(=O)[C@@H]3CCCN3S(=O)(=O)c3ccc(C)cc3)sc2cc1OC`, the Activity result in data set [7] is listed as “Non-Toxic”. The result in data set [14] was Active. For the same molecule, the result in [8], in data set [9] and in data set [13] was inactive. For the same molecule, the Drug metabolism entry in data set [15], in [16], in [17] and in [18] was “Metabolite_Detected” in each case.

In data set [3], `O=C(Nc1nc2cc(O)c(O)cc2s1)[C@@H]1CCCN1S(=O)(=O)c1ccccc1` displayed an IC50 of 1.43 µM. Also, the inhibition in [2] is 27%.

As for `O=C(Nc1nc2cc(O)c(O)cc2s1)[C@@H]1CCCN1S(=O)(=O)c1cccc([N+](=O)[O-])c1`, in data set [3], the IC50 came out at 1.78 µM. In addition, in [2], the inhibition was 25%.

Consider `Cc1ccc(S(=O)(=O)N2CCC[C@@H]2C(=O)Nc2nc3cc(O)c(O)cc3s2)cc1`, for which the Activity entry in data set [7] is “Non-Toxic”. Besides, the result in data set [5], in data set [8] and in data set [9] was inactive. Also, the IC50 in data set [3] was 1.32 µM; in data set [4], 19.7 µM. In addition, the Drug uptake entry in [10] and in [11] was “Active” in each case. Also, the Kd in data set [12] was 0.49 µM.

As for `O=C(Nc1nc2cc(O)c(O)cc2s1)[C@H]1CCCN1S(=O)(=O)c1cccc([N+](=O)[O-])c1`, in data set [3], inhibition was half-maximal at 1.11 µM (IC50). Besides, the inhibition in data set [2] came out at 33%.

In [3], `CC(=O)Nc1ccc2cc(S(=O)(=O)N3CCC[C@H]3C(=O)Nc3nc4cc(O)c(O)cc4s3)ccc2c1` returned a half-maximal inhibitory concentration (IC50) of 2.95 µM. Besides, the inhibition in [2] was 29%.

With `Cc1ccc(S(=O)(=O)N2CCCC[C@H]2C(=O)Nc2nc3cc(O)c(O)cc3s2)cc1`, the results for the IC50 in [3] and in data set [4] were 0.51 µM and 13 µM, respectively.

For the origin of these results see ChEMBL document CHEMBL4334527, “Proline-Based Allosteric Inhibitors of Zika and Dengue Virus NS2B/NS3 Proteases” (J Med Chem, 2019).
